Measurements published in patent US20240115496A1, “A COMPOUND DRY POWDER INHALANT AND USE THEREOF” (TIANJIN UNIVERSITY OF TRADITIONAL CHINESE MEDICINE, priority 2021, published 2024).
Structures can show the parent of a compound that is named as a salt.

Assays:
[1] = Particle size distribution test, laser particle size analyzer, dry dispersion; type: physicochemical
Experimental: The particle size distribution of DPI dry powder was measured by dry dispersion method using laser particle size analyzer, and Dv10, Dv50, Dv90, VMD (Volume median diameter) and SMD (Sauter mean diameter) were determined, respectively.

[2] = In vivo pharmacokinetics, plasma (UPLC-MS/MS); parameters: species or system rat; details: for half-life: read-out: HLz (biological half-life) (converted); for MRT last: read-out: MRTlast (mean retention time); for concentration at 2 min / concentration at 10 min / concentration at 15 min / concentration at 30 min / concentration at 60 min / concentration at 120 min / concentration at 240 min / concentration at 360 min / concentration at 4 min: read-out: Blood concentration of AH
Experimental: (§1) SPF-grade healthy SD male rats, body weight 180-220 g, purchased from SPF (Beijing) Biotechnology Co., Ltd (Certificate No. SCXK (Beijing) 2019-0010), were conventionally reared under (23±2)° C., humidity: (50±10)%. This study was conducted with the approval of the Animal Experiment Center of Tianjin University of Traditional Chinese Medicine.
(§2) 108 SPF-grade SD male rats were randomly divided into tail intravenous injection group and pulmonary administration group, with 9 time points of 2 min, 4 min, 10 min, 15 min, 30 min, 1 h, 2 h, 4 h and 6 h per group, 6 rats per time point per group. The rats were fasted for 12 h before the experiment, with water provided. The rats were weighed (to calculate the dose) and numbered, and both groups were intraperitoneally injected with 10% chloral hydrate at a dose of 2 mL/kg. Group 1 was administered BA/AH-DPI saline solution by tail intravenous injection at a dose of 9 mg/kg. Group 2 was administered 3 mg of BA/AH-DPI fine powder at the same dose by spray administration with a DP-4 tracheal insufflator (1.5 mL of air was pushed each time, 3-4 times consecutively). Blood was sampled from the abdominal aorta of the rats in both groups at the above time points after drug administration, and the rats were executed. The obtained whole blood was placed in a centrifuge tube with sodium heparin, centrifuged at 4000 r/min for 10 min, and the upper layer of plasma was separated and stored a refrigerator at −80° C. After blood collection, the thoracic cavity was quickly opened and the lungs of the rats were isolated. The small amount of floating blood on the surface of the lung tissue was washed with saline in an ice bath. The surface of the lung tissue was blotted with filter paper. The trachea was cut off, wrapped in tin foil and placed in a 10 mL centrifuge tube. The lung was weighed precisely, and stored in a refrigerator at −80° C.
(§3) 100 μL of the plasma sample or lung tissue supernatant was precisely absorbed, and 200 μL (100 ng/mL) of methanol solution containing the internal standard was added. The mixture was vortexed and mixed for 3 min, and centrifuged at 12000 r/min for 10 min to obtain the supernatant as the finished sample. The contents of BA and AH were determined by UPLC-MS/MS method.
(§4) Electrospray ion source (ESI source); scan mode: positive (ESI+) detection; detection mode: multi-reactive ion monitoring (MRM). Electrospray voltage: 4 kV; atomization gas: N2; spray gas flow rate (Gas1): 15 psi; ion source temperature: 300° C.
(§5) Meaning of pharmacokinetic parameters: HLz was the biological half-life, i.e., the time required for the amount or blood concentration of the drug in the body to decrease by half; Tmax was the time to peak, i.e., the time required to reach the peak concentration of the drug after administration. Cmax was the peak drug concentration, i.e., the highest blood concentration that occurred after administration of the drug. AUC was the area enclosed by the blood drug concentration curve against the time axis. Vz/F was the apparent volume of distribution, the ratio constant of the amount of drug in the body to the blood concentration when the drug reached dynamic equilibrium in the body. CL/F was the clearance, i.e., the number of apparent volume of distribution of the drug removed from the body per unit time. AUMC was the first order moment of the drug-time curve, i.e. the area under the curse of the product of time and blood concentration versus time. MRTlast was the mean retention time, i.e., the average of the residence time of drug molecules in the body.

[3] = In vivo pharmacokinetics, lung tissue homogenate (UPLC-MS/MS); parameters: species or system rat; details: for CL/F (clearance) / Cmax / Tmax / half-life / MRT last: AH in rat lung tissue; for concentration at 2 min / concentration at 4 min / concentration at 10 min / concentration at 15 min / concentration at 30 min / concentration at 60 min / concentration at 120 min / concentration at 240 min / concentration at 360 min / Cmax / Tmax / half-life / MRT last: male; for concentration at 2 min / concentration at 4 min / concentration at 10 min / concentration at 15 min / concentration at 30 min / concentration at 60 min / concentration at 120 min / concentration at 240 min / concentration at 360 min: rat lung tissue homogenate, read-out: Drug concentration of AH in lung tissue; for Cmax / Tmax / half-life / MRT last: lung tissue (homogenate supernatant); for half-life: read-out: HLz (biological half-life) (converted); for MRT last: read-out: MRTlast (mean retention time)
Experimental: as §1, §2
The lung tissues were added to saline in a weight to volume ratio of 1:4 (g:mL). A homogenate was obtained by beating, dispersing and evenly grinding with a homogenizer under an ice water bath, and centrifuged at 6500 r/min for 20 min to obtain the supernatant of the lung tissue homogenate.
as §3, §4, §5

[4] = male, SD, inhaled or intranasal, AH in rat plasma, pulmonary administration group, BA/AH-DPI 9 mg/kg
[5] = male, SD, inhaled, rat plasma, pulmonary administration BA/AH-DPI 9 mg/kg
[6] = male, SD, AH in rat plasma, tail intravenous injection group, 9 mg/kg
[7] = male, SD, rat plasma, tail intravenous injection BA/AH-DPI saline solution 9 mg/kg
[8] = male, Sprague-Dawley (SD), rat plasma, tail intravenous injection BA/AH-DPI saline solution 9 mg/kg
[9] = Sprague-Dawley (SD), inhaled, pulmonary administration BA/AH-DPI 9 mg/kg
[10] = Sprague-Dawley (SD), inhaled or intranasal, pulmonary administration group, BA/AH-DPI 9 mg/kg
[11] = Sprague-Dawley (SD), tail intravenous injection group, 9 mg/kg
[12] = Sprague-Dawley (SD), tail intravenous injection BA/AH-DPI saline solution 9 mg/kg

Molecule `Nc1c(Br)cc(Br)cc1CNC1CCC(O)CC1` (stereo not drawn) [AH, ambroxol hydrochloride] has a D10 [1] of 0.77 μm, a D50 [1] of 3.07 μm and a D90 [1] of 8.43 μm. For the same molecule, the “SMD (Sauter mean diameter)” value [1] was 1.79 μm, the “VMD (Volume median diameter)” value [1] was 3.93 μm and the “<3 μm” value ([1]; fraction of particles) was 49.10%. For the same molecule, the “<5 μm” value ([1]; fraction of particles) was 70.30%, the “CL/F (clearance)” value ([2]; AH in rat plasma, tail intravenous injection group, 9 mg/kg) was 169.3805 ± 53.272 mL/min/kg and the Cmax [2, 4] was 1770 ± 382 ng/mL. The CL/F ([2]; male, SD, inhaled or intranasal, AH in rat plasma, pulmonary administration group, BA/AH-DPI 9 mg/kg, read-out: CL/F (clearance) (converted)) was 237 mL/min/kg, the half-life [2, 4] was 109 ± 39.6 min and the MRT last [2, 4] was 49.8 ± 6 min. It also gave a Vd/F ([2]; male, SD, inhaled or intranasal, AH in rat plasma, pulmonary administration group, BA/AH-DPI 9 mg/kg, read-out: Vz/F (apparent volume of distribution)) of 37.2 ± 15.6 L/kg, a bioavailability ([2]; male, SD, inhaled, rat plasma, pulmonary administration of BA/AH-DPI vs tail intravenous injection, 9 mg/kg, read-out: Absolute bioavailability) of 53.5% and a concentration at 2 min [2, 5] of 763 ± 101 ng/mL. It also gave a concentration at 10 min [2, 5] of 1130 ± 170 ng/mL, a concentration at 15 min [2, 5] of 464 ± 191 ng/mL and a concentration at 30 min [2, 5] of 280 ± 75.8 ng/mL. It also gave a concentration at 60 min [2, 5] of 124 ± 35.3 ng/mL, a concentration at 120 min [2, 5] of 40.2 ± 21.1 ng/mL and a concentration at 240 min [2, 5] of 21 ± 6.64 ng/mL. The concentration at 360 min [2, 5] was 8.57 ± 0.38 ng/mL, the Cmax [2, 6] was 3300 ± 1440 ng/mL and the Tmax [2, 6] was 1.98 min. The half-life [2, 6] was 146 ± 53.4 min, the MRT last [2, 6] was 49.2 ± 10.2 min and the concentration at 10 min [2, 7] was 395 ± 142 ng/mL. It also gave a concentration at 15 min [2, 7] of 306 ± 140 ng/mL, a concentration at 30 min [2, 7] of 252 ± 116 ng/mL and a concentration at 60 min [2, 7] of 148 ± 58.7 ng/mL. For the same molecule, the concentration at 120 min [2, 7] was 49.4 ± 23 ng/mL, the concentration at 240 min [2, 7] was 33.9 ± 12.2 ng/mL and the concentration at 360 min [2, 7] was 18.9 ± 6.61 ng/mL. The Tmax ([2]; male, Sprague-Dawley (SD), inhaled or intranasal, AH in rat plasma, pulmonary administration group, BA/AH-DPI 9 mg/kg) was 4.02 min, the concentration at 4 min ([2]; male, Sprague-Dawley (SD), inhaled, rat plasma, pulmonary administration BA/AH-DPI 9 mg/kg) was 1770 ± 382 ng/mL and the concentration at 2 min [2, 8] was 3300 ± 1690 ng/mL. The concentration at 4 min [2, 8] was 598 ± 233 ng/mL, the “Time of maximum blood concentration in plasma” value ([2]; rat, pulmonary administration of BA/AH-DPI 9 mg/kg) was 4 min and the “CL/F (clearance)” value ([3]; pulmonary administration group, BA/AH-DPI 9 mg/kg) was 876.24 ± 146.55 g/h/kg. For the same molecule, the “CL/F (clearance)” value ([3]; tail intravenous injection group, 9 mg/kg) was 1454.72 ± 257.24 g/h/kg, the concentration at 2 min ([3]; SD, tail intravenous injection BA/AH-DPI saline solution 9 mg/kg) was 3230 ± 973 ng/mL and the concentration at 2 min [3, 9] was 7610 ± 1750 ng/mL. For the same molecule, the concentration at 4 min [3, 9] was 5150 ± 879 ng/mL, the concentration at 10 min [3, 9] was 2450 ± 384 ng/mL and the concentration at 15 min [3, 9] was 1320 ± 524 ng/mL. The concentration at 30 min [3, 9] was 798 ± 289 ng/mL, the concentration at 60 min [3, 9] was 503 ± 200 ng/mL and the concentration at 120 min [3, 9] was 256 ± 139 ng/mL. The concentration at 240 min [3, 9] was 153 ± 60 ng/mL, the concentration at 360 min [3, 9] was 66.2 ± 38.2 ng/mL and the Cmax [3, 10] was 30400 ± 6970 ng/g. For the same molecule, the Tmax [3, 10] was 2.34 ± 0.78 min, the half-life [3, 10] was 91.8 ± 26.4 min and the MRT last [3, 10] was 72.6 ± 12 min. The Cmax [3, 11] was 12900 ± 3890 ng/g, the Tmax [3, 11] was 1.98 min and the half-life [3, 11] was 72.6 ± 11.4 min. The MRT last [3, 11] was 60.6 ± 7.2 min, the concentration at 4 min [3, 12] was 1780 ± 454 ng/mL and the concentration at 10 min [3, 12] was 1230 ± 183 ng/mL. The concentration at 15 min [3, 12] was 1030 ± 210 ng/mL, the concentration at 30 min [3, 12] was 780 ± 243 ng/mL and the concentration at 60 min [3, 12] was 352 ± 83.1 ng/mL. The concentration at 120 min [3, 12] was 135 ± 58.9 ng/mL, the concentration at 240 min [3, 12] was 68.4 ± 24.5 ng/mL and the concentration at 360 min [3, 12] was 23.4 ± 10.5 ng/mL.
